From patent US9573908B2, “Broad spectrum pro-quorum-sensing molecules as inhibitors of virulence in vibrios” (priority 2012, dated 2017)

Legend:
[1] = test system: V. cholerae ΔcqsA ΔluxS double synthase mutant; assay type: cell-based; details: for induction of bioluminescence / QS activation: ΔcqsA ΔluxS double synthase mutant (wild type LuxO)
[2] = test system: V. cholerae luxO^D47E strain; assay type: cell-based, Vibrio cholerae; details: for induction of bioluminescence / QS activation: luxO^D47E mutant
[3] = test system: qrr4 expression in V. cholerae luxO^D47E strain; assay type: cell-based, Vibrio cholerae; details: 50 μM compound
vpsR = experiment: Transcription of the σ54-dependent gene vpsR; assay type: cell-based, Vibrio cholerae; details: in the presence of compound
LuxO D47E = LuxO D47E (Vibrio cholerae serotype O1, UniProt Q9KT84, D47E); experiment: Coupled-enzyme ATPase assay, LuxO D47E; assay type: biochemical; details: for inhibition of ATP hydrolysis: FIG. 5A-C; for mode of inhibition: Lineweaver-Burk plots, parallel slopes
E. coli NtrC = target: T1, E. coli NtrC (Escherichia coli, UniProt P0AFB8, D54E); experiment: biochemical; details: read-out: inhibition of ATPase activity of purified E. coli NtrC
T1 construct: His6 (N); made in house; host or cells: E. coli BL21 (DE3), strain WN2181 (pET28B-NtrC D54E)
T1 sequence (P0AFB8 1-469 D54E): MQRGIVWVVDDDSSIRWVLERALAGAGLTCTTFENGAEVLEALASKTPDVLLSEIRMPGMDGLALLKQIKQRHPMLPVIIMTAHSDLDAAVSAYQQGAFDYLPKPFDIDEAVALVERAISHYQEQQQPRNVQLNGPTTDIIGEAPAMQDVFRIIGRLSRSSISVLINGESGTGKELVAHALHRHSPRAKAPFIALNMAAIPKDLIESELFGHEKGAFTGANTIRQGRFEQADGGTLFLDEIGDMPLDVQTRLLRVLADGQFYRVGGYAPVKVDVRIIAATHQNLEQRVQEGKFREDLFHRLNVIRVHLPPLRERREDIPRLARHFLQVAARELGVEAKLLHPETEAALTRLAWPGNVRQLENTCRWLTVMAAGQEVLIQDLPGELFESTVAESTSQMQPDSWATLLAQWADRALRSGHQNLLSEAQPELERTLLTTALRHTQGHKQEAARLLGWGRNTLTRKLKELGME

[4] = test system: V. parahaemolyticus luxO* mutant (LM4476); experiment: Colony opacity of V. parahaemolyticus; assay type: cell-based, Vibrio parahaemolyticus; details: 500 μM in medium
LuxO D47E/I211F = LuxO D47E/I211F (Vibrio cholerae serotype O1, UniProt Q9KT84, D47E/I197F); experiment: Coupled-enzyme ATPase assay, LuxO D47E/I211F; assay type: biochemical; details: 100 μM Compound 12, 2.5 mM ATP (FIG. 11)
[5] = test system: V. cholerae luxO^D47E strain; assay type: cell-based, Vibrio cholerae; details: 0-200 μM compound 12, Western blot
[6] = test system: V. parahaemolyticus luxO* strain (LM4476); assay type: cell-based; details: 200 and 500 μM compound 12, Western blot
[7] = test system: V. parahaemolyticus LM4476 (luxO*) on cultured HeLa cells; experiment: V. parahaemolyticus cytotoxicity assay on HeLa cells (LDH release); details: 500 μM, luxO* mutant, MOI 10

Compound | EC50 (potency) of QS activation ([1]; dose-response curves, FIG. 2C, comparison in words) | induction of bioluminescence / QS activation [1] | induction of bioluminescence / QS activation [2] | decrease of GFP production from qrr4-gfp transcriptional fusion [3] [fold] | change in transcription of vpsR (vpsR) | inhibition of ATP hydrolysis (LuxO D47E) | mode of inhibition (LuxO D47E) | inhibition at 250 µM (E. coli NtrC) [%] | colony morphology [4] | enhancement in potency ([2]; EC50 from FIG. 3, tert-butyl carbinol side chain versus the series) [fold] | inhibition of ATPase activity of LuxO D47E/I211F (LuxO D47E/I211F) | HapR level [5] | TcpA level [5] | VopD production and secretion [6] | average cytotoxicity (HeLa cell lysis) ([7]; 2 to 3 hours post-infection) [%] | cytotoxicity (HeLa cell lysis) ([7]; 4-hour post-infection) [%]
CC(C)COC(=O)CSc1n[nH]c(=O)[nH]c1=O [Compound 11, Isobutyl 2-((3,5-dioxo-2,3,4,5-tetrahydro-1,2,4-triazin-6-yl)thio)acetate] | highest potency | activate QS | activate QS | ~3 | did not change significantly | inhibit ATP hydrolysis in a dose-dependent manner | uncompetitive inhibitors | ~10 | switch from translucent to opaque | – | – | – | – | – | – | –
CC(C)(C)COC(=O)CSc1n[nH]c(=O)[nH]c1=O [Compound 12, Neopentyl 2-((3,5-dioxo-2,3,4,5-tetrahydro-1,2,4-triazin-6-yl)thio)acetate] | – | activate QS | activate QS | – | – | inhibit ATP hydrolysis in a dose-dependent manner | uncompetitive inhibitors | ~10 | switch from translucent to opaque | 3 | not inhibited | increased | decreased | decreased production and secretion | ~30 | ~100
